Assay results taken from PubChem BioAssay (NCI).
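In this assay, cells in 96-well plates receive the compound at five concentrations for 48 hours. Endpoints are linearly interpolated between the surrounding concentrations. Here, GI50 denotes the concentration required for 50% inhibition of growth. TGI marks complete inhibition of growth.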

What was measured:
Test in all cases: inhibition of tumour cell growth, NCI panel, 48 h
786-0 renal = tested on: 786-0 renal
A498 renal = tested on: A498 renal
A549 NSCLC = tested on: A549 NSCLC
ACHN renal = tested on: ACHN renal
BT-549 breast = tested on: BT-549 breast
CAKI-1 renal = tested on: CAKI-1 renal
CCRF-CEM leukemia = tested on: CCRF-CEM leukemia
COLO 205 colon = tested on: COLO 205 colon
DU-145 prostate = tested on: DU-145 prostate
EKVX NSCLC = tested on: EKVX NSCLC
HCC-2998 colon = tested on: HCC-2998 colon
HCT-116 colon = tested on: HCT-116 colon
HCT-15 colon = tested on: HCT-15 colon
HL-60(TB) leukemia = tested on: HL-60(TB) leukemia
HOP-62 NSCLC = tested on: HOP-62 NSCLC
HOP-92 NSCLC = tested on: HOP-92 NSCLC
HS 578T breast = tested on: HS 578T breast
HT29 colon = tested on: HT29 colon
IGROV1 ovarian = tested on: IGROV1 ovarian
K-562 leukemia = tested on: K-562 leukemia
KM12 colon = tested on: KM12 colon
LOX IMVI melanoma = tested on: LOX IMVI melanoma
M14 melanoma = tested on: M14 melanoma
MALME-3M melanoma = tested on: MALME-3M melanoma
MCF7 breast = tested on: MCF7 breast
MDA-MB-231 breast = tested on: MDA-MB-231 breast
MDA-MB-435 = tested on: MDA-MB-435
MOLT-4 leukemia = tested on: MOLT-4 leukemia
NCI-H226 lung = tested on: NCI-H226 lung
NCI-H23 lung = tested on: NCI-H23 lung
NCI-H460 lung = tested on: NCI-H460 lung
NCI-H522 lung = tested on: NCI-H522 lung
NCI/ADR-RES ovarian = tested on: NCI/ADR-RES ovarian
OVCAR-3 ovarian = tested on: OVCAR-3 ovarian
OVCAR-4 ovarian = tested on: OVCAR-4 ovarian
OVCAR-5 ovarian = tested on: OVCAR-5 ovarian
OVCAR-8 ovarian = tested on: OVCAR-8 ovarian
PC-3 prostate = tested on: PC-3 prostate
RPMI-8226 leukemia = tested on: RPMI-8226 leukemia
RXF 393 renal = tested on: RXF 393 renal
SF-268 CNS = tested on: SF-268 CNS
SF-295 CNS = tested on: SF-295 CNS
SF-539 CNS = tested on: SF-539 CNS
SK-MEL-2 melanoma = tested on: SK-MEL-2 melanoma
SK-MEL-28 melanoma = tested on: SK-MEL-28 melanoma
SK-MEL-5 melanoma = tested on: SK-MEL-5 melanoma
SK-OV-3 ovarian = tested on: SK-OV-3 ovarian
SN12C renal = tested on: SN12C renal
SNB-19 CNS = tested on: SNB-19 CNS
SNB-75 CNS = tested on: SNB-75 CNS
SR leukemia = tested on: SR leukemia
SW-620 colon = tested on: SW-620 colon
T-47D breast = tested on: T-47D breast
TK-10 renal = tested on: TK-10 renal
U251 CNS = tested on: U251 CNS
UACC-257 melanoma = tested on: UACC-257 melanoma
UACC-62 melanoma = tested on: UACC-62 melanoma
UO-31 renal = tested on: UO-31 renal

For `O=C(Nc1nn2c(-c3cc(C(F)(F)F)cc(C(F)(F)F)c3)nnc2s1)C1CCCC1`, the GI50 (786-0 renal) was 0.663 µM, the TGI (786-0 renal) was > 32.8 µM and the GI50 (A498 renal) was 0.255 µM. For the same molecule, the TGI (A498 renal) was 2.92 µM, the GI50 (A549 NSCLC) was 1.08 µM and the TGI (A549 NSCLC) was > 100 µM. The GI50 (ACHN renal) was 1.04 µM, the TGI (ACHN renal) was > 31.6 µM and the GI50 (BT-549 breast) was 0.796 µM. For the same molecule, the TGI (BT-549 breast) was > 74.7 µM, the GI50 (CAKI-1 renal) was 0.311 µM and the TGI (CAKI-1 renal) was > 65.2 µM. The GI50 (CCRF-CEM leukemia) was 0.459 µM, the TGI (CCRF-CEM leukemia) was > 82.1 µM and the GI50 (COLO 205 colon) was 1.49 µM. The TGI (COLO 205 colon) was 2.86 µM, the GI50 (DU-145 prostate) was 1.95 µM and the TGI (DU-145 prostate) was > 100 µM. For the same molecule, the GI50 (EKVX NSCLC) was 0.366 µM, the TGI (EKVX NSCLC) was > 25.2 µM and the GI50 (HCC-2998 colon) was 0.685 µM. For the same molecule, the TGI (HCC-2998 colon) was > 100 µM, the GI50 (HCT-116 colon) was 0.518 µM and the TGI (HCT-116 colon) was > 100 µM. For the same molecule, the GI50 (HCT-15 colon) was 0.665 µM, the TGI (HCT-15 colon) was > 100 µM and the GI50 (HL-60(TB) leukemia) was 0.407 µM. The TGI (HL-60(TB) leukemia) was 1.75 µM, the GI50 (HOP-62 NSCLC) was 2.42 µM and the TGI (HOP-62 NSCLC) was > 29.8 µM. For the same molecule, the GI50 (HOP-92 NSCLC) was 0.197 µM, the TGI (HOP-92 NSCLC) was 0.876 µM and the GI50 (HS 578T breast) was 0.706 µM. For the same molecule, the TGI (HS 578T breast) was > 100 µM, the GI50 (HT29 colon) was 1.11 µM and the TGI (HT29 colon) was > 32.5 µM. For the same molecule, the GI50 (IGROV1 ovarian) was 0.553 µM, the TGI (IGROV1 ovarian) was > 100 µM and the GI50 (K-562 leukemia) was 0.488 µM. For the same molecule, the TGI (K-562 leukemia) was > 100 µM, the GI50 (KM12 colon) was 0.575 µM and the TGI (KM12 colon) was > 46.2 µM. The GI50 (LOX IMVI melanoma) was 0.807 µM, the TGI (LOX IMVI melanoma) was > 100 µM and the GI50 (M14 melanoma) was 0.957 µM. For the same molecule, the TGI (M14 melanoma) was > 100 µM, the GI50 (MALME-3M melanoma) was 0.27 µM and the TGI (MALME-3M melanoma) was 2.93 µM. For the same molecule, the GI50 (MCF7 breast) was 0.512 µM, the TGI (MCF7 breast) was > 33.7 µM and the GI50 (MDA-MB-231 breast) was 1.12 µM. For the same molecule, the TGI (MDA-MB-231 breast) was 4.01 µM, the GI50 (MDA-MB-435) was 0.424 µM and the TGI (MDA-MB-435) was > 39.8 µM. It also gave a GI50 (MOLT-4 leukemia) of 0.643 µM, a TGI (MOLT-4 leukemia) of 4.53 µM and a GI50 (NCI-H226 lung) of 1.23 µM. For the same molecule, the TGI (NCI-H226 lung) was > 100 µM, the GI50 (NCI-H23 lung) was 0.394 µM and the TGI (NCI-H23 lung) was > 100 µM. For the same molecule, the GI50 (NCI-H460 lung) was 0.473 µM, the TGI (NCI-H460 lung) was > 100 µM and the GI50 (NCI-H522 lung) was 0.277 µM. For the same molecule, the TGI (NCI-H522 lung) was 2.29 µM, the GI50 (NCI/ADR-RES ovarian) was 0.641 µM and the TGI (NCI/ADR-RES ovarian) was > 28.5 µM. For the same molecule, the GI50 (OVCAR-3 ovarian) was 0.441 µM, the TGI (OVCAR-3 ovarian) was > 37.8 µM and the GI50 (OVCAR-4 ovarian) was 0.748 µM. The TGI (OVCAR-4 ovarian) was > 37.9 µM, the GI50 (OVCAR-5 ovarian) was 2.63 µM and the TGI (OVCAR-5 ovarian) was > 100 µM. The GI50 (OVCAR-8 ovarian) was 1.18 µM, the TGI (OVCAR-8 ovarian) was > 100 µM and the GI50 (PC-3 prostate) was 0.603 µM. The TGI (PC-3 prostate) was > 100 µM, the GI50 (RPMI-8226 leukemia) was 0.368 µM and the TGI (RPMI-8226 leukemia) was > 25.6 µM. For the same molecule, the GI50 (RXF 393 renal) was 1.62 µM, the TGI (RXF 393 renal) was > 33.9 µM and the GI50 (SF-268 CNS) was 1.08 µM. The TGI (SF-268 CNS) was > 100 µM, the GI50 (SF-295 CNS) was 0.286 µM and the TGI (SF-295 CNS) was 2.01 µM. For the same molecule, the GI50 (SF-539 CNS) was 0.981 µM, the TGI (SF-539 CNS) was > 100 µM and the GI50 (SK-MEL-2 melanoma) was 0.529 µM. For the same molecule, the TGI (SK-MEL-2 melanoma) was 2.4 µM, the GI50 (SK-MEL-28 melanoma) was 0.734 µM and the TGI (SK-MEL-28 melanoma) was > 100 µM. For the same molecule, the GI50 (SK-MEL-5 melanoma) was 0.251 µM, the TGI (SK-MEL-5 melanoma) was 1.74 µM and the GI50 (SK-OV-3 ovarian) was 1.76 µM. For the same molecule, the TGI (SK-OV-3 ovarian) was 45.8 µM, the GI50 (SN12C renal) was 0.454 µM and the TGI (SN12C renal) was > 36.7 µM. For the same molecule, the GI50 (SNB-19 CNS) was 0.614 µM, the TGI (SNB-19 CNS) was > 100 µM and the GI50 (SNB-75 CNS) was 1.43 µM. The TGI (SNB-75 CNS) was > 28.2 µM, the GI50 (SR leukemia) was 0.942 µM and the TGI (SR leukemia) was 6.21 µM. For the same molecule, the GI50 (SW-620 colon) was 1.74 µM, the TGI (SW-620 colon) was > 100 µM and the GI50 (T-47D breast) was 0.375 µM. The TGI (T-47D breast) was > 24.6 µM, the GI50 (TK-10 renal) was 1.79 µM and the TGI (TK-10 renal) was > 100 µM. The GI50 (U251 CNS) was 0.854 µM, the TGI (U251 CNS) was > 100 µM and the GI50 (UACC-257 melanoma) was 0.419 µM. The TGI (UACC-257 melanoma) was 3.49 µM, the GI50 (UACC-62 melanoma) was 0.253 µM and the GI50 (UO-31 renal) was 0.402 µM. The TGI (UO-31 renal) was 5.57 µM.
With `O=C1c2cccc3cc([N+](=O)[O-])cc(c23)C(=O)N1Nc1ccc([N+](=O)[O-])cc1[N+](=O)[O-]` the TGI (786-0 renal) was 35.7 µM, the TGI (A498 renal) was 41.1 µM and the TGI (A549 NSCLC) was > 31.6 µM. For the same molecule, the TGI (ACHN renal) was 7.06 µM, the TGI (BT-549 breast) was > 31.6 µM and the TGI (CAKI-1 renal) was > 31.6 µM. The TGI (CCRF-CEM leukemia) was 14.5 µM, the TGI (COLO 205 colon) was 18.3 µM and the TGI (DU-145 prostate) was > 46.4 µM. For the same molecule, the TGI (EKVX NSCLC) was > 46.4 µM, the TGI (HCC-2998 colon) was 29.2 µM and the TGI (HCT-116 colon) was 34.3 µM. The TGI (HCT-15 colon) was 27.4 µM, the TGI (HL-60(TB) leukemia) was 27.5 µM and the TGI (HOP-62 NSCLC) was 50.5 µM. For the same molecule, the TGI (HOP-92 NSCLC) was > 31.6 µM, the TGI (HS 578T breast) was > 31.6 µM and the TGI (HT29 colon) was 24.2 µM. The TGI (IGROV1 ovarian) was 25.5 µM, the TGI (K-562 leukemia) was > 31.6 µM and the TGI (KM12 colon) was 26.3 µM. The TGI (LOX IMVI melanoma) was 19.4 µM, the TGI (M14 melanoma) was > 74.9 µM and the TGI (MALME-3M melanoma) was > 31.6 µM. For the same molecule, the TGI (MCF7 breast) was > 31.6 µM, the TGI (MDA-MB-231 breast) was 42.9 µM and the TGI (MDA-MB-435) was > 46.4 µM. For the same molecule, the TGI (MOLT-4 leukemia) was 11.8 µM, the TGI (NCI-H226 lung) was > 31.6 µM and the TGI (NCI-H23 lung) was 35.7 µM. The TGI (NCI-H460 lung) was 36.2 µM, the TGI (NCI-H522 lung) was 28.6 µM and the TGI (NCI/ADR-RES ovarian) was > 31.6 µM. The TGI (OVCAR-3 ovarian) was 82.8 µM, the TGI (OVCAR-4 ovarian) was > 46.4 µM and the TGI (OVCAR-5 ovarian) was > 100 µM. For the same molecule, the TGI (OVCAR-8 ovarian) was 21 µM, the TGI (PC-3 prostate) was 72.7 µM and the TGI (RPMI-8226 leukemia) was > 31.6 µM. For the same molecule, the TGI (RXF 393 renal) was > 31.6 µM, the TGI (SF-268 CNS) was > 31.6 µM and the TGI (SF-295 CNS) was > 31.6 µM. For the same molecule, the TGI (SF-539 CNS) was > 31.6 µM, the TGI (SK-MEL-2 melanoma) was > 100 µM and the TGI (SK-MEL-28 melanoma) was 18 µM. For the same molecule, the TGI (SK-MEL-5 melanoma) was 21.1 µM, the TGI (SK-OV-3 ovarian) was > 31.6 µM and the TGI (SN12C renal) was > 73.5 µM. For the same molecule, the TGI (SNB-19 CNS) was 38.9 µM, the TGI (SNB-75 CNS) was > 31.6 µM and the TGI (SR leukemia) was 11.6 µM. For the same molecule, the TGI (SW-620 colon) was 25.3 µM, the TGI (T-47D breast) was > 31.6 µM and the TGI (TK-10 renal) was > 46.4 µM. It also gave a TGI (U251 CNS) of 29.3 µM, a TGI (UACC-257 melanoma) of 24.1 µM and a TGI (UACC-62 melanoma) of 24.5 µM. The TGI (UO-31 renal) was 33.1 µM.
